This is an account of results in US8466104B2, “Therapeutically active alpha MSH analogues” (AbbVie Inc., priority 2005, dated 2013).

Assay [1] relates to LPS induced TNF-α production by human leucocytes (PBMC). Put plainly: Inhibition of LPS induced TNF-a production by human leucocytes in vitro (experimental setup 1). To be noted: for dose dependent reduction of LPS induced TNF-a accumulation / inhibitory effect on TNF-a accumulation compared to native a-MSH / LPS induced TNF-a accumulation, % of the maximal response (LPS-Vehicle): human leucocyte suspension; for LPS induced TNF-a accumulation, % of the maximal response (LPS-Vehicle): 10 ng LPS/mL, 18 hours, maximal effect (10^−7 M); for concentration at which the maximal inhibitory effect on LPS-induced TNF-α production was achieved: human lymphocyte suspension. The class given is cell-based. As for the experimental part: Inhibition of LPS Induced TNF-a Production by Human Leucocytes In Vitro
20 mL human blood is collected in vacutainer tubes containing EDTA. PBMC is isolated using Ficoll-Paque Plus as in Amersham's Instruction 71-7167-00 AD, 2002-06. PBMC is counted using Tryphan Blue Solution (Sigma) and incubated in RPMI 1640, (Applichem), supplemented with 10 mM Hepes (Sigma), 2 mM L-glutamin (Sigma), 0.1% BSA (Sigma) and 50U/50 μg/mL Penicillin/Streptomycin (Sigma) in the concentration 5×10^5 cells/mL. The isolated PBMC is incubated in a humidified 5% CO2, 95% air atmosphere, at 37° C., in 24 well flat-bottomed plates (Corning Incorporated) with medium, 10 ng LPS/mL (Sigma), and test compound. After 18 hours the samples are centrifuged, and TNF-α in the supernatants is measured using Tumour Necrosis Factor Alpha [(h)TNF-α] from Human Biotrak ELISA System (Amersham).
The samples are incubated as following per donor: • PBMC's in RPMI (Time Control) • PBMC's with 10 ng LPS/mL (Vehicle) • PBMC's, 10 ng LPS/mL, 10^−17M a-MSH or a-MSH analogue • PBMC's, 10 ng LPS/mL, 10^−15M a-MSH or a-MSH analogue • PBMC's, 10 ng LPS/mL, 10^−13M a-MSH or a-MSH analogue • PBMC's, 10 ng LPS/mL, 10^−11M a-MSH or a-MSH analogue • PBMC's, 10 ng LPS/mL, 10^−9M a-MSH or a-MSH analogue • PBMC's, 10 ng LPS/mL, 10^−7M a-MSH or a-MSH analogue
All samples are diluted from an initial stock solution between 1.4×10^−4M and 1.8×10^−3M. All solutions are handled in BSA coated vials in order to protect against binding of the compound to the surface of the vials.
Data is presented as mean±SE. The effect of test compounds on LPS induced TNF-a liberation is expressed as percentage of the TNF-a accumulation in the LPS-vehicle group. All comparisons are analysed with Student's unpaired t-test. Differences are considered significant at probability levels (p) of 0.05.

In assay [2] the test system is neutrophil and eosinophil infiltration in BALF after LPS inhalation. Kind of assay: Inhibition of neutrophil and eosinophil infiltration after LPS inhalation in rats (experimental setup 3). The class given is in vivo, rat. To be noted: for number of eosinophils within the BALF / number of neutrophils within the BALF: 24 hours after LPS inhalation, 200 μg/kg bw iv bid; for effect on neutrophils within the BALF compared to a-MSH / reduction of eosinophils in the BALF / lungs: LPS inhalation. As for the experimental part:
Inhibition of Neutrophil and Eosinophil Infiltration after LPS Inhalation in Rats.
Male Sprague-Dawley rats (weight ˜200 g) from M&B A/S, DK-8680 Ry, Denmark, are used for all experiments. The rats are caged in standard cages type 3 and housed in a temperature- (22-24° C.) and moisture-controlled (40-70%) room with a 12 h light-dark cycle (light on from 6:00 A.M. to 6:00 P.M.). The diet is autoclaved Altromin 1324 special formulation, Produced by Altromin Denmark, Chr. Pedersen A/S, 4100 Ringsted, Denmark. Diet and water are administered ad libitum.
After acclimatization the rats are randomly allocated to the experimental groups and dosed i.v. with test compound at start of LPS-induction and once again 8 hours after LPS-induction.
Rats in groups of 3 are anaesthetized with 0.1 ml hypnorm/dormicum pr. 100 g and dosed i.v with the test compound. Immediately after dosing they are placed in the inhalation chamber where they are subjected to a nebulized LPS solution. The concentration of LPS is 1 mg/ml. Dosing time is 15 minutes. The rats are euthanized 24 hours after dosing with the test substance. At termination the rats are euthanized with CO2/O2. Then bronchoalveolar lavage is performed by installing and withdrawing 6×2.5 ml of PBS to the right lung. Lavage is done with the lungs remaining in the thorax after removing sternum and costae. The connection to the left lung is tied off during this procedure. Bronchoalveolar fluid (BALF) is centrifuged at 1000 rpm at 4° C. for 10 minutes. After removing the supernatant the cell pellet is resuspended in 0.5 ml PBS and total cell count performed. Two smears of BALF stained with May-Grüjwald Giemsa stain is made from each rat. BALF from each rat is subjected to total cell count and to differential count of leucocytes.
In addition to LPS infusion all rats are treated with bolus injections of either:
• a-MSH: 200 μg/kg/bw • a-MSH analogue: 200 μg/kg/bw
Data are presented as mean±S.E. Between group comparisons are performed by one way analysis of variance followed by Fishers Least Significant Difference test. Differences are considered significant at the 0.05 level.

Assay [3] concerns cisplatin induced renal failure in rats. Kind of assay: Inhibition of cisplatin induced renal failure (experimental setup 7). The format is in vivo, rat. The note with it: for effect on cisplatin induced fall in GFR / effect on cisplatin induced hypomagnesemia: rats treated with cisplatin; for Plasma Mg: rats treated with cisplatin 5.0 mg/kg ip, 200 μg/kg iv test compound. As for the experimental part:
Inhibition of Cisplatin Induced Renal Failure
Rats, which previously have been instrumented with a chronic venous catheter, are placed in metabolic cages and after a period of acclimation to the metabolic cages the rats are treated with an intreperitoneal cisplatin injection 5.0 mg/kg bw in 0.5 ml 150 mM NaCl or vehicle (0.5 ml 150 mM NaCl). Five days later the rats are then returned to metabolic cages, and daily 24 h urine output and water intake are measured and collected for the next five days. All rats are then anesthetized in halothan/N2O and an arterial blood sample collected in prechilled EDTA coated vials. The blood samples are collected in a prechilled test tube with 0.5 mM EDTA, pH 7.4, and 20×10^6 IU/ml aprotinin. After centrifugation at 4° C., plasma samples are transferred to pre-chilled test tubes and stored at −20° C. for later measurements of creatinine and Magnesium (Mg). In addition to this creatinine is also measured in the urine collected in the last 24 hours period prior to the blood collection. […] Measurement of creatinine in urine and plasma is performed by use of the clinical chemistry systems VITROS 950 (Ortho-Clinical Diagnostics Inc., Johnson & Johnson, NJ) and Roche Hitachi Modular (Roche Diagnostics, Mannheim, Germany).
The rats are subjected to one of the following i.v treatments: • Vehicle: 0.5 ml 150 mM NaCl • a-MSH: 200 μg o-melanocyte stimulating hormone/kg b.w. in 0.5 ml 150 mM NaCl. • Test compound: 200 μg test compound/kg b.w. in 0.5 ml 150 mM NaCl. Treatment is given 5 minutes prior to reperfusion of the kidney and subsequently 6 and 24 hours later. Statistics
Data are presented as mean±S.E. Within group comparisons are analysed with Student's paired t test. Between group comparisons are performed by one way analysis of variance followed by Fishers Least Significant Difference test. Differences are considered significant at the 0.05 level.

“Ac-Lys-Lys-Lys-Lys-Lys-Lys-Ser-Tyr-Ser-Met-Glu-His-Phe-Arg-Trp-Gly-Lys-Pro-Val-NH2 (Ac-KKKKKKSYSMEHFRWGKPV-NH2) [a-MSH analogue #1]”: in assay [1], the “dose dependent reduction of LPS induced TNF-a accumulation” value (“dose dependent reduction” for short) is given as “dose dependently reduce”; the “inhibitory effect on TNF-a accumulation compared to native a-MSH” value (from here on “inhibitory effect … compared to native a-MSH”) is on record as “markedly more pronounced”; the “LPS induced TNF-a accumulation, % of the maximal response (LPS-Vehicle)” value (“LPS induced TNF-a accumulation, %” for short) is on record as 47±2%; the “concentration at which the maximal inhibitory effect on LPS-induced TNF-α production was achieved” value is listed as 10^−7 M. In assay [2], the “number of eosinophils within the BALF” value was 49.0±10.5 ×10^5cells, the “effect on neutrophils within the BALF compared to a-MSH” value (shortened to “effect … compared to a-MSH”) is “similar” and the “reduction of eosinophils in the BALF / lungs” value is listed as “marked reduction of eosinophils”. The “reduction of eosinophils in the BALF / lungs” value in assay [2] (listed as SEQ ID NO:1*) is on record as “significantly inhibits”. Moreover, in assay [3], the “effect on cisplatin induced fall in GFR” value is listed as “prevents the cisplatin induced fall in GFR”, the “effect on cisplatin induced hypomagnesemia” value is reported as “prevents cisplatin induced hypomagnesemia” and the “Plasma Mg” value came to 0.84 ± 0.04 mM.

In the case of “Ser-Tyr-Ser-Met-Glu-His-Phe-Arg-Trp-Gly-Lys-Pro-Val [a-MSH, reference compound]”, in assay [1], the “dose dependent reduction” value is given as “dose dependently reduce” and the “LPS induced TNF-a accumulation, %” value was found to be 73±9%. Further, the “concentration at which the maximal inhibitory effect on LPS-induced TNF-α production was achieved” value in assay [1] (listed as α-MSH) is on record as 10^−7 M. In assay [2], the “number of eosinophils within the BALF” value is recorded as 26.7±4.3 ×10^5cells, the “number of neutrophils within the BALF” value was 20.1±2.5 ×10^5cells and the “reduction of eosinophils in the BALF / lungs” value was “marked reduction of eosinophils”. Further, in assay [3], the “Plasma Mg” value is 0.37 ± 0.04 mM.

“Ac-Lys-Lys-Lys-Lys-Lys-Lys-Ser-Tyr-Ser-Nle-Glu-His-(D-Phe)-Arg-Trp-Gly-Lys-Pro-Val-NH2 (KKKKKKSYSXEHFRWGKPV; N-acetyl, Nle, D-Phe, C-amide) [a-MSH analogue #2]”: in assay [1], the “dose dependent reduction” value is recorded as “dose dependently reduce”; the “inhibitory effect … compared to native a-MSH” value is recorded as “markedly more pronounced”; the “LPS induced TNF-a accumulation, %” value is on record as 42±111%; the “concentration at which the maximal inhibitory effect on LPS-induced TNF-α production was achieved” value is on record as 10^−7 M. For the same substance, in assay [2], the “number of eosinophils within the BALF” value is reported as 34.0±8.6 ×10^5cells, the “number of neutrophils within the BALF” value was 9.1±2.4 ×10^5cells, the “effect … compared to a-MSH” value is “much more pronounced inhibitory effects” and the “reduction of eosinophils in the BALF / lungs” value was “marked reduction of eosinophils”. Further, in assay [2] (listed as SEQ ID NO: 5*), the “effect … compared to a-MSH” value is listed as “markedly inhibited neutrophil infiltration to a much higher degree” and the “reduction of eosinophils in the BALF / lungs” value is reported as “significantly inhibits”. In assay [3], the “effect on cisplatin induced fall in GFR” value is recorded as “prevents cisplatin induced hypomagnesemia as well as the cisplatin induced fall in GFR” and the “effect on cisplatin induced hypomagnesemia” value is reported as “prevents cisplatin induced hypomagnesemia”.

Turning to “Ac-Lys-Lys-Lys-Lys-Lys-Lys-Ser-Tyr-Ser-Nle-Glu-His-D-Nal-Arg-Trp-Gly-Lys-Pro-Val-NH2 (KKKKKKSYSXEHXRWGKPV; not fully specified; N-acetyl, Nle, D-Nal, C-amide) [a-MSH analogue #3]”, in assay [1], the “dose dependent reduction” value is “dose dependently reduce”; the “inhibitory effect … compared to native a-MSH” value is “markedly more pronounced”; the “LPS induced TNF-a accumulation, %” value worked out at 53±13%.
